Results from patent publication US20120094958A1, “QUINOLINES AS INHIBITORS OF FARNESYL PYROPHOSPHATE SYNTHASE” (NOVARTIS AG, priority 2008, published 2012).
Read-outs that look alike come from different tables or passages of the source.

Target: T1, Recombinant human Farnesyl Pyrophosphate synthase (FPPS) (Homo sapiens, UniProt P14324)
T1 construct: made in house
T1 sequence (P14324 1-353 isoform P14324-2): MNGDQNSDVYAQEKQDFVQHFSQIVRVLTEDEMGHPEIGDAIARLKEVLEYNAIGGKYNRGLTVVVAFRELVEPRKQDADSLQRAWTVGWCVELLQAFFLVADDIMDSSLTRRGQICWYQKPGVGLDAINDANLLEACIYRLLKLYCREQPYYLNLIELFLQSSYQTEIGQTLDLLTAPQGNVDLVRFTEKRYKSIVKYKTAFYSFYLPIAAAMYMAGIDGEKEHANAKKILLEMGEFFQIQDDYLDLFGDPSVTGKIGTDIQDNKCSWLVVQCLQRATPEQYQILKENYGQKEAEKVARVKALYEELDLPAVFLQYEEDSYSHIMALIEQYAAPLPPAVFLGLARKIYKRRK
Experiment: FPPS enzyme assay, scintillation proximity (FlashPlate)
Format: biochemical

[1] = FlashPlate SPA, GPP 150 nM, [3H]-IPP 150 nM, FPPS 500 pM, 45 minutes at room temperature, highest concentration tested 100 μM, read-out: FPPS IC50

| SMILES | IC50 [1] [µM] | IC50 [µM] |
| --- | --- | --- |
| O=P(O)(O)CCc1ccc2cccc(-c3cccc4ccccc34)c2n1 [Example 41, [2-(8-Naphthalen-1-yl-quinolin-2-yl)-ethyl]-phosphonic acid] | 2.3 | – |
| CCOP(=O)(Cc1ccc2cccc(-c3cccc4ccccc34)c2n1)OCC [Example 11.6, (8-Naphthalen-1-yl-quinolin-2-ylmethyl)-phosphonic acid diethyl ester] | – | > 100 |
| O=C(OCc1ccccc1)c1ccc2cccc(-c3cccc4cnccc34)c2n1 [Example 2.b.i] | > 10 | – |
| O=P(O)(O)CNc1ccc2cc(-c3cccnc3)cc(-c3cccc4ccccc34)c2n1 [Example 10, [(8-Naphthalen-1-yl-6-pyridin-3-yl-quinolin-2-ylamino)-methyl]-phosphonic acid] | 2.8 | – |
| O=C(OCc1ccccc1)c1ccc2cccc(-c3cccc4c3CCCC4=O)c2n1 [Example 2.d.i] | > 10 | – |
| O=P(O)(O)CNc1ccc2cccc(-c3cccc4ccccc34)c2n1 [Example 5, [(8-Naphthalen-1-yl-quinolin-2-ylamino)-methyl]-phosphonic acid] | 4.1 | – |
| O=P(O)(O)CNCc1ccc2cccc(-c3cccc4ccccc34)c2n1 [Example 12, {[(8-Naphthalen-1-yl-quinolin-2-ylmethyl)-amino]-methyl}-phosphonic acid] | > 100 | – |
